Measurements reported in BindingDB's records for doi:10.1016/S0960-894X(00)80308-X (1993).

Biological target: Human immunodeficiency virus type 1 protease (Human immunodeficiency virus 1, UniProt Q72874)
Assay: ChEBML_159632
Experimental: Inhibitory concentration required to inhibit HIV-1 protease was determined

## CC(C)(C)OC(=O)N[C@H](C(=O)C(=C=N)c1ccc([N+](=O)[O-])cc1)C(=O)C(N)c1ccccc1 (some centres not stated)
  Ki: 30 µM

## N=C=C(C(=O)[C@H](Cc1ccccc1)NC(=O)OCc1ccccc1)c1ccc([N+](=O)[O-])cc1
  Ki: 30 µM
